“And” between values parts separate entries of the source, which are not always exact repeats. Equal entries are not always repeated. Where two headings read alike, the source gives them in different places. No end group written: not given here.
Tests used:
[1] = system: FQSE (SEQ ID NO:10)-specific binding sites in the rat cortex; assay: Radioligand analysis with [3H] FQSE on rat cortex membranes
Description: After decapitation, the tissues were immediately frozen in liquid nitrogen and stored in a low-temperature refrigerator at −80° C. On the day of the experiment, brain tissue (cortex, about 300 mg) was homogenized in a Teflon-glass Potter homogenizer 1:25 W:V in the buffer (50 mM Tris-HCl, pH 7.4). The homogenate was centrifuged at 40,000 g for 20 min. The obtained precipitate was homogenized in a buffer (50 mM Tris-HCl; pH=7.4) and centrifuged again at 40,000 g for 20 min. A similar procedure was performed again. The precipitate was resuspended in 15 ml of the same buffer and used for the radioligand analysis.
The incubation mixture (final volume 0.5 ml) contained 50 μl […]
At the end of the incubation, the samples were filtered through Ge/C glass fiber filters (Whatman) previously moistened with 0.3% polyethyleneimine for 2 hours at room temperature. Each tube was washed twice with cold buffer, then the filters were washed twice with the same volume of buffer.
The filters were air-dried and transferred to scintillation vials. Filters were poured with 5 ml of toluene-based scintillation liquid (4 g PPO, 0.2 g POPOP per liter of toluene).
To construct the curves of the radioactive ligand's displacement each concentration of the test substance was taken in 3 replications. […]

[2] = system: Sprague Dawley rats; assay: Forced swim test in rats, intranasal FQSE; type: in vivo; details: FQSE 0.5 mg/kg i.n.; ketamine 10 mg/kg IP
Description: The five doses of FQSE (SEQ ID NO:10) (0.01, 0.1, 0.5, 1 and 3 mg/kg, CS, Menlo Park, CA) were prepared fresh for each test day in sterile saline and administered intranasally (i.n.) 30 minutes prior to testing. Fifteen rats per group per peptide dose were tested with the exception that there were twenty rats in the vehicle (0) group. Each dose was administered in a randomized order across rats. Prior to dosing, the rats were lightly anesthetized (till loss of righting reflex) with isoflurane (2.5%, 0.5 L/min oxygen), placed in the recumbent position, then a thin plastic pipette (Fischer Scientific) inserted into the nares and peptide administered at a volume of 15-20 uL per nares. Individuals performing the behavioral tests were blind to drug treatment.
Rats were first allowed to acclimate to the testing room for 30 minutes while in their home cage. The forced swim tests were conducted using Plexiglas cylinders (10 in width, 18 in height) filled with water maintained at approximately 25° C. On day 1, rats were first habituated (15 minutes) to the forced swim apparatus by being placed into the water facing the cylinder wall. Forced swim tests (5 minutes) occurred the following day. Activity was recorded by digital cameras and analyzed with specialized software (Ethovision XT12).
Statistical significance was set at P<0.05.

[3] = system: zebrafish (Danio rerio); assay: Zebrafish behavioral tests taken together (open field, light/dark box, shoaling); type: in vivo; details: ip; for basic behavioral parameters in open field, light/dark box and shoaling tests: FLPY 1 and 10 mg/kg, DKTE 10 mg/kg, WDQV 1 mg/kg
Description: (§1) The tested substances were injected into the zebrafish intraperitoneally (ip) using an insulin syringe (0.5 ml, 30 g) 10 minutes before the test. The saline solution (0.9% NaCl) was used as a solvent. Anesthesia and immobilization of the animals were achieved by placing them in water at a temperature of 10° C. Control group fish received intraperitoneal injections of an equivalent volume of solvent, also after going through a pre-cooling procedure.
(§2) The open field test was performed as described in Maximino et al., 2013. A video recording (background shooting) was started 20-30 seconds before the zebrafish were placed in the test aquarium. The experimental zebrafish was placed in an open field (“OF”) aquarium using a net. The recording was being conducted for five minutes. The test was carried out using EthoVision XT software package (Noldus). The software registered the distance covered by the animal, its speed, the number of visits to the three conventional zones of the aquarium: “bottom,” “center,” and […] (lower, middle, and upper thirds of the aquarium, respectively), the time spent in these zones, and the latency of a visit to the middle and to the surface of the aquarium.
(§3) The shoaling behavior test was performed as described in Parker et al., 2014. (Parker et al. (2014) The utility of zebrafish to study the mechanisms by which ethanol affects social behavior and anxiety during early brain development. Prog. Neuro-Psychopharmacology Biol. Psychiatry. 94-100). The video recording began simultaneously with placing the zebrafish in the set-up and recorded for 5 minutes. The videos were processed using RealTimer (OpenScience Ltd., Moskow, Russia). During the processing of the records, the residence time and the number of visits to the three conventional zones of the aquarium wall (near the “shoal” in the middle of the aquarium, and near the opposite side; all three were equal in size) were recorded.
(§4) The light/dark box (LDB) test was performed as described in Maximino et al., 2011. The zebrafish was placed in a light compartment of an LDB using a net, the camera was switched on simultaneously, and the behavior of the zebrafish was recorded for 5 minutes. The video was processed using RealTimer (OpenScience). During the processing of records, the residence time and the number of visits to the light and dark compartments of the test setup were recorded, as well as the latent period of visiting both compartments.

[4] = system: zebrafish (Danio rerio); assay: Light/dark box test in zebrafish; type: in vivo; details: ip
Description: as §1
(§5) A base, back, and side walls of the aquarium were made of matte black plastic; the front panel (shorter wall) was made of transparent Plexiglas. The setup for the Light/Dark preference test consisted of three main parts: a launch compartment, a light compartment made of white plastic, and a dark compartment made of black plastic. The bright lighting in these tests was provided by a lamp on a stand (LED lamp PL, 11 W, light flux≈600 Lm, about 500 Lx directly above the water surface), which was attached to the upper part of the aquarium.
as §4

[5] = system: zebrafish (Danio rerio); assay: Shoaling behavior test in zebrafish; type: in vivo; details: ip; for time spent in the compartment near the shoal: ACZ-10 0.6 mg/kg
Description: as §1
A Plexiglas container with a removable partition (shown in FIG. 4) was used as a setup for investigating the shoaling behavior of zebrafish. A shoal of 5 adult Danio rerio specimens was placed into in the small compartment; and the test fish was placed in a large compartment. Diffused lighting in this installation was provided by the usual lighting of the room (about 200 Lx).
as §3

[6] = system: zebrafish (Danio rerio); assay: Open Field test in zebrafish; type: in vivo; details: ip; for average distance covered / track length (locomotor activity): diazepam 1.25, 5, 10, fluvoxamine 5, 10, ACZ-10 0.6, BCM-7 5, FQSE 1 and 10, DKTE 1, WDQV 10 mg/kg; for time spent at the surface of the aquarium: fluvoxamine 5 and 10 mg/kg, FQSE 1 mg/kg
Description: as §1, §5, §2

[7] = diazepam 1.25 mg/kg, BCM-7 5 mg/kg, DKTE 1 mg/kg, vs control
[8] = FQSE 10 mg/kg, ACZ-10 0.6 mg/kg

O=C(N/N=C/c1ccccc1O)c1ccccc1O [SCS]
Amount of bound [3H] FQSE after pre-incubation compared to control level [1]: 93.93% and 104.58%

CNC1(c2ccccc2Cl)CCCCC1=O (stereo not shown) [Ketamine]
immobility [2]: 196.4 ± 8.9 s
mobility [2]: 103.6 ± 8.9 s

O=C(O)C1=CCNCC1 [Isoguvacine]
Amount of bound [3H] FQSE after pre-incubation compared to control level ([1]; 10^−4M, 1 hour preincubation, 25 minutes incubation): 102.56%
Amount of bound [3H] FQSE after pre-incubation compared to control level ([1]; 10^−5M, 1 hour preincubation, 25 minutes incubation): 104.33%
IC50 ([1]; Series 5, 25 and 50 minutes at room temperature, read-out: IC50 with respect to [3H]-FQSE binding): > 100 µM

FLPY: tetrapeptide used as a negative control
basic behavioral parameters in open field, light/dark box and shoaling tests [3]: neither of the doses of FLPY (SEQ ID NO:36), induced statistically significant changes

C[C@]12CC[C@@H](O)C[C@@H]1CC[C@@H]1[C@@H]2CC[C@]2(C)[C@@H](C(=O)CO)CC[C@@H]12 [THDOC, tetrahydrodeoxycorticosterone; 3α,21-dihydroxy-5α-pregnan-20-one]
Amount of bound [3H] FQSE after pre-incubation compared to control level [1]: 100.59% and 103.38%

CCCCCCN(CCCCCC)C(=O)Cc1c(-c2ccc(F)cc2)[nH]c2ccccc12 [FGIN-1-27]
Amount of bound [3H] FQSE after pre-incubation compared to control level [1]: 102.65% and 102.33%

DKTE: tetrapeptide D, K, T, E
basic behavioral parameters in open field, light/dark box and shoaling tests [3]: did not cause any statistically significant changes
change in behavior / efficacy in the light/dark box test ([4]; fluvoxamine 5 and 10 mg/kg, DKTE 1 mg/kg): no observed efficacy
latent period of visiting the shoal ([5]; DKTE 1 mg/kg): statistically significant increase
time spent in the compartment near the shoal [5, 7]: at the level of tendency
time spent outside the shoaling compartment (near the wall opposite to the shoal) ([5]; diazepam 5 mg/kg, FQSE 10 mg/kg, DKTE 1 mg/kg, vs control): statistically significant increase
latent period of visiting the bottom of the aquarium ([6]; DKTE 1 mg/kg): increase
average distance covered / track length (locomotor activity) [6]: did not affect

YPFPGPI [BCM-7, L-tyrosyl-L-prolyl-L-phenylalanyl-L-prolyl-glycyl-L-prolyl-L-isoleucine]
time spent in the compartment near the shoal [5, 7]: decrease
time spent outside the shoaling compartment ([5]; diazepam 1.25 mg/kg, BCM-7 5 mg/kg): did not demonstrate a statistically significant effect
average distance covered / track length (locomotor activity) [6]: slight increase

COCCCC/C(=N\OCCN)c1ccc(C(F)(F)F)cc1 [Fluvoxamine]
increase of the time spent in the upper part ([6]; FQSE 10 mg/kg, fluvoxamine 5 mg/kg): more than 80%
average distance covered / track length (locomotor activity) [6]: did not demonstrate any significant effects
increase of the time spent under light ([6]; fluvoxamine 5 mg/kg): about 6.8 times
increase of the time spent under light ([6]; fluvoxamine 10 mg/kg): about 7.2 times
time spent at the surface of the aquarium ([6]; ACZ-10 0.6 mg/kg): statistically significant increase

Oc1noc2c1CCNC2 [Gaboxadol]
Amount of bound [3H] FQSE after pre-incubation compared to control level [1]: 99.31% and 100.25%

YLGYLEQLLR [ACZ-10, L-tyrosyl-L-leucyl-glycyl-L-tyrosyl-L-leucyl-L-alpha-glutamyl-L-glutaminyl-L-leucyl-L-leucyl-L-arginine]
time spent in the compartment near the shoal [5, 7]: statistically significant decrease
latent period of leaving the bottom [6, 8]: decreased significantly
time spent in the upper part of the aquarium [6, 8]: did not affect
average distance covered / track length (locomotor activity) [6]: did not demonstrate any significant effects
time spent at the surface of the aquarium ([6]; ACZ-10 0.6 mg/kg): approximately twofold increase

Cn1ncnc1COc1nn2c(-c3c(F)cccc3F)nnc2cc1C1CCC1 [MK0343]
Amount of bound [3H] FQSE after pre-incubation compared to control level [1]: 98.58% and 104.65%

O=C(c1ccc(F)cc1)C1CCN(CCn2c(=O)[nH]c3ccccc3c2=O)CC1 [Ketanserin]
IC50 ([1]; 25 min incubation at RT, read-out: IC50 with respect to [3H]-FQSE binding): > 100 µM

CC(=O)[C@H]1CC[C@H]2[C@@H]3CC[C@H]4C[C@H](O)CC[C@]4(C)[C@H]3CC[C@]12C [Allopregnanolone]
Amount of bound [3H] FQSE after pre-incubation compared to control level [1]: 100.90% and 103.18%

WDQV: tetrapeptide W, D, Q, V
basic behavioral parameters in open field, light/dark box and shoaling tests [3]: no significant effects
behavior in tests other than the light/dark box ([3]; WDQV 10 mg/kg): did not reveal any effect
time spent in the dark compartment ([4]; FQSE 10 mg/kg, WDQV 10 mg/kg): reduction
time spent in the light compartment ([4]; diazepam 5 mg/kg, FQSE 10 mg/kg, WDQV 10 mg/kg): increase
average distance covered / track length (locomotor activity) [6]: no influence

CC(=O)[C@H]1CC[C@H]2[C@@H]3CC=C4C[C@@H](O)CC[C@]4(C)[C@H]3CC[C@]12C [Pregnenolone]
Amount of bound [3H] FQSE after pre-incubation compared to control level [1]: 87% and 81%
IC50 ([1]; RT, 50 min, read-out: IC50 after different incubation times: 50 min): 36 ± 0.2 µM
IC50 ([1]; RT, 1 h 30 min, read-out: IC50 after different incubation times: 1 h 30 min): 75 ± 0.3 µM
IC50 ([1]; RT, 1 h, read-out: IC50 after different incubation times: 1 h): 77 ± 0.2 µM
IC50 ([1]; read-out: IC50 for the [3H]-FQSE binding sites in rat cortex membranes): ~100 µM

Cn1c2ccc(F)cc2c2c(C(=O)N3CCCC3)cn(-c3ccccc3)c(=O)c21 [SL 651498]
Amount of bound [3H] FQSE after pre-incubation compared to control level [1]: 101.36% and 106.98%

CC1(C)CC(=O)c2c(SCCO)sc(-c3nccs3)c2C1 [TB21007]
Amount of bound [3H] FQSE after pre-incubation compared to control level [1]: 103.14% and 105.28%

CC(C)(C)OC(=O)c1ncn2c1[C@@H]1CCCN1C(=O)c1c(Br)cccc1-2 [Bretanezil]
Amount of bound [3H] FQSE after pre-incubation compared to control level [1]: 94.79% and 104.51%

Reference: US12178838B2, “Synthetic neuromodulatory peptides” (Lactocore, Inc., priority 2019, dated 2024)
